In BindingDB's records for doi:10.1021/jm9900016 (Universit&#224, 1999):

Target: Thymidylate synthase (Lactobacillus casei)
Test: In vitro inhibition of Lactobacillus casei Thymidylate synthase.

Row | Structure (SMILES) | Ki [µM]
1 | O=C1OC(c2ccc(O)c(Cl)c2)(c2ccc(O)c(Cl)c2)c2ccccc21 [3,3-Bis-(3-chloro-4-hydroxy-phenyl)-3H-isobenzofuran-1-one] | 1.9
2 | O=C1OC(c2ccc(O)c(Cl)c2)(c2ccc(O)c(Cl)c2)c2cc3ccccc3cc21 [3,3-Bis-(3-chloro-4-hydroxy-phenyl)-3H-naphtho[2,3-c]furan-1-one] | 1.5
3 | O=C1OC(c2ccc(O)c(F)c2)(c2ccc(O)c(F)c2)c2cc3ccccc3cc21 [3,3-Bis-(3-fluoro-4-hydroxy-phenyl)-3H-naphtho[2,3-c]furan-1-one] | 1.5
4 | O=C1OC(c2ccc(O)cc2)(c2ccc(O)cc2)c2cc3ccccc3cc21 [3,3-Bis-(4-hydroxy-phenyl)-3H-naphtho[2,3-c]furan-1-one] | 7
5 | O=C1OC(O)(c2ccc(O)c(Cl)c2)c2ccc([N+](=O)[O-])c3cccc1c23 (stereo not drawn) [3-(3-Chloro-4-hydroxy-phenyl)-3-hydroxy-6-nitro-3H-benzo[de]isochromen-1-one] | 0.25
6 | O=C1OC(c2ccc(O)cc2)(c2ccc(O)c3ccccc23)c2ccccc21 (stereo not drawn) [3-(4-Hydroxy-naphthalen-1-yl)-3-(4-hydroxy-phenyl)-3H-isobenzofuran-1-one] | 1.5
7 | O=C1OC(O)(c2ccccc2O)c2cccc3cccc1c23 (stereo not drawn) [3-Hydroxy-3-(2-hydroxy-phenyl)-3H-benzo[de]isochromen-1-one] | 105
8 | O=C1OC(c2ccc(O)cc2)(c2ccc(O)cc2)c2ccc3c4c(ccc1c24)CC3 [7,7-Bis-(4-hydroxy-phenyl)-2,7-dihydro-1H-6-oxa-cyclopenta[cd]phenalen-5-one] | 1.5
